Source: PMC5218480 (PLoS ONE, 2017)

Test system: MV-4-11 cells
Assay: Gene expression microarray analysis (Affymetrix PrimeView) and GSEA
Format: cell-based, human
Parameters: RFU PODN (11730768_x_at) / Fold change /veh PODN (11730768_x_at) / RFU LINC00158 (11744669_a_at) / Fold change /veh LINC00158 (11744669_a_at) / RFU DUSP10 (11751237_a_at) / Fold change /veh DUSP10 (11751237_a_at) / RFU ID3 (11757404_x_at) / Fold change /veh ID3 (11757404_x_at) / RFU PLEKHG5 (11737974_s_at) / Fold change /veh PLEKHG5 (11737974_s_at) / RFU LRRC4B (11730491_at) / Fold change /veh LRRC4B (11730491_at) / RFU GIMAP4 (11747438_a_at) / Fold change /veh GIMAP4 (11747438_a_at) / RFU KRT8 (11758183_x_at) / Fold change /veh KRT8 (11758183_x_at) / RFU CNN1 (11734310_a_at) / Fold change /veh CNN1 (11734310_a_at) / RFU VPS37D (11726825_at) / Fold change /veh VPS37D (11726825_at) / RFU C10orf10 (11716522_x_at) / Fold change /veh C10orf10 (11716522_x_at) / RFU KIR2DL2 /// KIR2DL4 /// KIR2DL5A /// KIR2DL5B /// KIR2DS1 /// KIR2DS2 /// KIR2DS3 /// KIR2DS4 /// KIR3DL3 /// KIR3DL3 /// KIR3DS1 (11738374_at) / Fold change /veh KIR2DL2 /// KIR2DL4 /// KIR2DL5A /// KIR2DL5B /// KIR2DS1 /// KIR2DS2 /// KIR2DS3 /// KIR2DS4 /// KIR3DL3 /// KIR3DL3 /// KIR3DS1 (11738374_at) / RFU C1QL1 (11718748_at) / Fold change /veh C1QL1 (11718748_at) / RFU TMPRSS4 (11747572_a_at) / Fold change /veh TMPRSS4 (11747572_a_at) / RFU HAMP (11756126_x_at) / Fold change /veh HAMP (11756126_x_at) / RFU RNFT2 (11725882_a_at) / Fold change /veh RNFT2 (11725882_a_at) / RFU NR4A2 (11747474_a_at) / Fold change /veh NR4A2 (11747474_a_at) / RFU ABCC12 (11746883_a_at) / Fold change /veh ABCC12 (11746883_a_at) / RFU TMEM136 (11760407_x_at) / Fold change /veh TMEM136 (11760407_x_at) / RFU CLDN22 /// WWC2 (11732394_at) / Fold change /veh CLDN22 /// WWC2 (11732394_at) / RFU HLA-DPB1 (11760878_x_at) / Fold change /veh HLA-DPB1 (11760878_x_at) / RFU SPINT1 (11716480_a_at) / Fold change /veh SPINT1 (11716480_a_at) / RFU GAP43 (11754022_s_at) / Fold change /veh GAP43 (11754022_s_at) / RFU A4GNT (11735810_at) / Fold change /veh A4GNT (11735810_at) / RFU PRB3 (11715151_x_at) / Fold change /veh PRB3 (11715151_x_at) / RFU TUBB4B (11761932_at) / Fold change /veh TUBB4B (11761932_at) / RFU CAPN14 (11732068_a_at) / Fold change /veh CAPN14 (11732068_a_at) / RFU TMCC2 (11721928_a_at) / Fold change /veh TMCC2 (11721928_a_at) / RFU IRGQ (11745062_a_at) / Fold change /veh IRGQ (11745062_a_at) / RFU FAM174B (11720279_a_at) / Fold change /veh FAM174B (11720279_a_at) / RFU TMPRSS4 (11748680_a_at) / Fold change /veh TMPRSS4 (11748680_a_at) / RFU FAM212B (11763350_a_at) / Fold change /veh FAM212B (11763350_a_at) / RFU PLEKHG5 (11743358_a_at) / Fold change /veh PLEKHG5 (11743358_a_at) / RFU ZSCAN30 (11745921_a_at) / Fold change /veh ZSCAN30 (11745921_a_at) / RFU CMKLR1 (11741424_a_at) / Fold change /veh CMKLR1 (11741424_a_at) / RFU LOC101060620 /// MAPK8IP1 (11723275_at) / Fold change /veh LOC101060620 /// MAPK8IP1 (11723275_at) / RFU SPTSSB (11747773_x_at) / Fold change /veh SPTSSB (11747773_x_at) / RFU PRSS12 (11739890_at) / Fold change /veh PRSS12 (11739890_at) / RFU BIN1 (11741810_x_at) / Fold change /veh BIN1 (11741810_x_at) / RFU WNT11 (11732464_a_at) / Fold change /veh WNT11 (11732464_a_at) / RFU C10orf10 (11716521_a_at) / Fold change /veh C10orf10 (11716521_a_at) / RFU C5orf56 (11738089_at) / Fold change /veh C5orf56 (11738089_at) / RFU CYB561 (11721691_x_at) / Fold change /veh CYB561 (11721691_x_at) / RFU ANKRD19P (11752326_a_at) / Fold change /veh ANKRD19P (11752326_a_at) / RFU OR2T12 /// OR2T33 /// OR2T8 (11738714_s_at) / Fold change /veh OR2T12 /// OR2T33 /// OR2T8 (11738714_s_at) / RFU VCAN (11748164_a_at) / Fold change /veh VCAN (11748164_a_at) / RFU JSRP1 (11732532_at) / Fold change /veh JSRP1 (11732532_at) / RFU KRTAP10-11 (11738290_x_at) / Fold change /veh KRTAP10-11 (11738290_x_at) / RFU MYO3A (11730013_a_at) / Fold change /veh MYO3A (11730013_a_at) / RFU EBF3 (11725865_a_at) / Fold change /veh EBF3 (11725865_a_at) / RFU CAMK2N1 (11719241_x_at) / Fold change /veh CAMK2N1 (11719241_x_at) / RFU C5orf56 (11738088_a_at) / Fold change /veh C5orf56 (11738088_a_at) / RFU OLFML3 (11715873_a_at) / Fold change /veh OLFML3 (11715873_a_at) / RFU LOC100653217 /// NTM (11731650_a_at) / Fold change /veh LOC100653217 /// NTM (11731650_a_at) / RFU MAPK11 (11762145_a_at) / Fold change /veh MAPK11 (11762145_a_at) / RFU FIZ1 (11724087_x_at) / Fold change /veh FIZ1 (11724087_x_at) / RFU OASL (11726364_x_at) / Fold change /veh OASL (11726364_x_at) / RFU SOX15 (11748057_x_at) / Fold change /veh SOX15 (11748057_x_at) / RFU CD79A (11719716_a_at) / Fold change /veh CD79A (11719716_a_at) / RFU HIST1H1D (11736915_at) / Fold change /veh HIST1H1D (11736915_at) / RFU CASKIN2 (11723855_a_at) / Fold change /veh CASKIN2 (11723855_a_at) / RFU LOC730098 (11760151_x_at) / Fold change /veh LOC730098 (11760151_x_at) / RFU OR4N2 (11742367_at) / Fold change /veh OR4N2 (11742367_at) / RFU PRRT2 (11749266_a_at) / Fold change /veh PRRT2 (11749266_a_at) / RFU SNX32 (11753110_a_at) / Fold change /veh SNX32 (11753110_a_at) / RFU CDHR5 (11726645_a_at) / Fold change /veh CDHR5 (11726645_a_at) / RFU RCAN1 (11760418_a_at) / Fold change /veh RCAN1 (11760418_a_at) / RFU FAM167A (11723789_a_at) / Fold change /veh FAM167A (11723789_a_at) / RFU FAM26E (11764081_at) / Fold change /veh FAM26E (11764081_at) / RFU ISYNA1 (11749810_s_at) / Fold change /veh ISYNA1 (11749810_s_at) / RFU ACY1 (11761880_at) / Fold change /veh ACY1 (11761880_at) / RFU 11764098_at / Fold change /veh 11764098_at / RFU SAMD14 (11745864_x_at) / Fold change /veh SAMD14 (11745864_x_at) / RFU NPB (11741838_a_at) / Fold change /veh NPB (11741838_a_at) / RFU TMPRSS6 (11731388_a_at) / Fold change /veh TMPRSS6 (11731388_a_at) / RFU KRTAP10-2 (11738614_at) / Fold change /veh KRTAP10-2 (11738614_at) / RFU ARHGAP8 /// PRR5-ARHGAP8 (11727945_x_at) / Fold change /veh ARHGAP8 /// PRR5-ARHGAP8 (11727945_x_at) / RFU KRTAP5-7 /// NADSYN1 (11734609_at) / Fold change /veh KRTAP5-7 /// NADSYN1 (11734609_at) / RFU RASL12 (11751679_a_at) / Fold change /veh RASL12 (11751679_a_at) / RFU CDKN2B (11736163_a_at) / Fold change /veh CDKN2B (11736163_a_at) / RFU PRF1 (11729649_at) / Fold change /veh PRF1 (11729649_at) / RFU, ZNF638 /// ZNF638-IT1 / Fold change vs veh, ZNF638 /// ZNF638-IT1 / RFU, PANK3 / Fold change vs veh, PANK3 / RFU, SH3YL1 / Fold change vs veh, SH3YL1 / RFU, ZEB2 / Fold change vs veh, ZEB2 / RFU, NRIP1 / Fold change vs veh, NRIP1 / RFU, PTTG1IP / Fold change vs veh, PTTG1IP / RFU, CAPN2 / Fold change vs veh, CAPN2 / RFU, MED14 / Fold change vs veh, MED14 / RFU, SNORA58 / Fold change vs veh, SNORA58 / RFU, C1orf63 / Fold change vs veh, C1orf63 / RFU, LRRFIP1 / Fold change vs veh, LRRFIP1 / RFU, NDUFAF7 / Fold change vs veh, NDUFAF7 / RFU, SLC12A2 / Fold change vs veh, SLC12A2 / RFU, IBTK / Fold change vs veh, IBTK / RFU, ESF1 / Fold change vs veh, ESF1 / Fold change vs veh, TMEM50B / RFU, TAOK1 / Fold change vs veh, TAOK1 / RFU, ACBD3 / Fold change vs veh, ACBD3 / RFU, TMA16 / Fold change vs veh, TMA16 / RFU, RWDD3 / Fold change vs veh, RWDD3 / RFU, BCAT1 / Fold change vs veh, BCAT1 / RFU, EDEM3 / Fold change vs veh, EDEM3 / RFU, TMEM33 / Fold change vs veh, TMEM33 / RFU, WDR75 / Fold change vs veh, WDR75 / RFU, AHCTF1 / Fold change vs veh, AHCTF1 / RFU, TFRC / Fold change vs veh, TFRC / RFU, ZDHHC17 / Fold change vs veh, ZDHHC17 / RFU, NOM1 / Fold change vs veh, NOM1 / RFU, ARL8B / Fold change vs veh, ARL8B / RFU, ZBTB11 / Fold change vs veh, ZBTB11 / RFU, TAMM41 / Fold change vs veh, TAMM41 / RFU, KIAA1704 /// LOC100996395 / Fold change vs veh, KIAA1704 /// LOC100996395 / RFU, ING1 / Fold change vs veh, ING1 / RFU, TRMT61B / Fold change vs veh, TRMT61B / RFU, FUBP3 / Fold change vs veh, FUBP3 / RFU, TP53 / Fold change vs veh, TP53 / RFU, TNKS2 / Fold change vs veh, TNKS2 / RFU, ZFP14 / Fold change vs veh, ZFP14 / RFU, ACTR2 / Fold change vs veh, ACTR2 / RFU, PPP3R1 / Fold change vs veh, PPP3R1 / RFU, PIK3R1 / Fold change vs veh, PIK3R1 / RFU, HNRNPA1 / Fold change vs veh, HNRNPA1 / RFU, RNF170 / Fold change vs veh, RNF170 / RFU, ZNF28 / Fold change vs veh, ZNF28 / RFU, RNGTT / Fold change vs veh, RNGTT / RFU, OGT / Fold change vs veh, OGT / RFU, BRD1 / Fold change vs veh, BRD1 / RFU, MARS / Fold change vs veh, MARS / RFU, ZNF655 / Fold change vs veh, ZNF655 / RFU, FAHD1 / Fold change vs veh, FAHD1 / RFU, BDP1 / Fold change vs veh, BDP1 / RFU, LRRCC1 / Fold change vs veh, LRRCC1 / RFU, ARID1A / Fold change vs veh, ARID1A / RFU, ZNF146 / Fold change vs veh, ZNF146 / RFU, ZNF330 / Fold change vs veh, ZNF330 / RFU, GPN3 / Fold change vs veh, GPN3 / RFU, C9orf123 / Fold change vs veh, C9orf123 / RFU, N4BP2L2 / Fold change vs veh, N4BP2L2 / RFU, ARFIP1 / Fold change vs veh, ARFIP1 / RFU, FAM179B / Fold change vs veh, FAM179B / RFU, BCL10 / Fold change vs veh, BCL10 / RFU, UHRF1BP1L / Fold change vs veh, UHRF1BP1L / RFU, BET1 / Fold change vs veh, BET1 / RFU, CNOT2 / Fold change vs veh, CNOT2 / RFU, ZNF268 / Fold change vs veh, ZNF268 / Fold change vs veh, ZNF507 / RFU, DGCR2 / Fold change vs veh, DGCR2 / RFU, WDSUB1 / Fold change vs veh, WDSUB1 / Fold change vs veh, HSP90B1 /// MIR3652 / RFU, ADSS / Fold change vs veh, ADSS / RFU, GK / Fold change vs veh, GK / RFU, ZNF148 / Fold change vs veh, ZNF148 / RFU, TAF9 / Fold change vs veh, TAF9 / RFU, SLC1A5 / Fold change vs veh, SLC1A5 / RFU, SLMO2 / Fold change vs veh, SLMO2 / RFU, ABCC4 / Fold change vs veh, ABCC4 / RFU, LOC101060439 /// RAP1B / Fold change vs veh, LOC101060439 /// RAP1B / RFU, RFX7 / Fold change vs veh, RFX7 / RFU, GTPBP10 / Fold change vs veh, GTPBP10 / RFU, CNEP1R1 / Fold change vs veh, CNEP1R1 / RFU, BIVM-ERCC5 /// ERCC5 / Fold change vs veh, BIVM-ERCC5 /// ERCC5 / RFU, ILF3 / Fold change vs veh, ILF3 / RFU 11762660_at / Fold change /veh 11762660_at / RFU VCAN (11757783_s_at) / Fold change /veh VCAN (11757783_s_at) / RFU DDX43 (11728927_at) / Fold change /veh DDX43 (11728927_at) / RFU KRT8 (11758188_x_at) / Fold change /veh KRT8 (11758188_x_at) / RFU NKD1 (11759106_at) / Fold change /veh NKD1 (11759106_at) / RFU SRD5A1 (11742802_a_at) / Fold change /veh SRD5A1 (11742802_a_at) / RFU TPSAB1 /// TPSB2 (11721975_s_at) / Fold change /veh TPSAB1 /// TPSB2 (11721975_s_at) / RFU GSTM3 (11746129_a_at) / Fold change /veh GSTM3 (11746129_a_at) / RFU IL23R (11737362_x_at) / Fold change /veh IL23R (11737362_x_at) / RFU TMEM51 (11727254_a_at) / Fold change /veh TMEM51 (11727254_a_at) / RFU PIWIL2 (11732686_x_at) / Fold change /veh PIWIL2 (11732686_x_at) / RFU ORM1 (11744905_x_at) / Fold change /veh ORM1 (11744905_x_at) / RFU CCDC152 (11743942_at) / Fold change /veh CCDC152 (11743942_at) / RFU ECM1 (11717891_a_at) / Fold change /veh ECM1 (11717891_a_at) / RFU IL23R (11748794_a_at) / Fold change /veh IL23R (11748794_a_at) / RFU TNFAIP8L3 (11732012_x_at) / Fold change /veh TNFAIP8L3 (11732012_x_at) / RFU MBOAT4 (11741988_at) / Fold change /veh MBOAT4 (11741988_at) / RFU 11764193_at / Fold change /veh 11764193_at / RFU TMEM53 (11763286_at) / Fold change /veh TMEM53 (11763286_at) / RFU MAGEB2 (11727129_at) / Fold change /veh MAGEB2 (11727129_at) / RFU TMEM200A (11744735_a_at) / Fold change /veh TMEM200A (11744735_a_at) / RFU CCDC152 (11751479_a_at) / Fold change /veh CCDC152 (11751479_a_at) / RFU FAM211A (11726209_a_at) / Fold change /veh FAM211A (11726209_a_at) / RFU RGS16 (11746705_a_at) / Fold change /veh RGS16 (11746705_a_at) / RFU VCAN (11755009_s_at) / Fold change /veh VCAN (11755009_s_at) / RFU RHOB (11743442_s_at) / Fold change /veh RHOB (11743442_s_at) / RFU RGS16 (11720943_a_at) / Fold change /veh RGS16 (11720943_a_at) / RFU RGS16 (11720944_at) / Fold change /veh RGS16 (11720944_at) / RFU, VPS4B / Fold change vs veh, VPS4B / RFU, CREB1 / Fold change vs veh, CREB1 / RFU, DNAJC13 / Fold change vs veh, DNAJC13 / RFU, GNAQ / Fold change vs veh, GNAQ / RFU, CDK5R1 / Fold change vs veh, CDK5R1 / RFU, ZRANB3 / Fold change vs veh, ZRANB3 / RFU, CUL4A / Fold change vs veh, CUL4A / RFU, CCNY / Fold change vs veh, CCNY / RFU, UFL1 / Fold change vs veh, UFL1 / RFU, COG3 / Fold change vs veh, COG3 / RFU, DIAPH2 / Fold change vs veh, DIAPH2 / RFU, SKA2 / Fold change vs veh, SKA2 / RFU, AFF3 / Fold change vs veh, AFF3 / RFU, LMF1 / Fold change vs veh, LMF1 / RFU, IPO11 / Fold change vs veh, IPO11 / RFU, DFFB / Fold change vs veh, DFFB / RFU, FOXP1 / Fold change vs veh, FOXP1 / RFU, CARD8 / Fold change vs veh, CARD8 / RFU, STRN3 / Fold change vs veh, STRN3 / RFU, ADK / Fold change vs veh, ADK / RFU, RASSF2 / Fold change vs veh, RASSF2 / RFU, WIPF1 / Fold change vs veh, WIPF1 / RFU, LARP1B / Fold change vs veh, LARP1B / RFU, RASA1 / Fold change vs veh, RASA1 / RFU, RB1 / Fold change vs veh, RB1 / RFU, PPFIA1 / Fold change vs veh, PPFIA1 / RFU, MAT2A / Fold change vs veh, MAT2A / RFU, CCT5 / Fold change vs veh, CCT5 / RFU, WDR92 / Fold change vs veh, WDR92 / RFU, CUX1 / Fold change vs veh, CUX1 / RFU, TTC7A / Fold change vs veh, TTC7A / RFU, TMEM135 / Fold change vs veh, TMEM135 / RFU, DEPTOR / Fold change vs veh, DEPTOR / RFU, CPM / Fold change vs veh, CPM / RFU, DNAJB6 / Fold change vs veh, DNAJB6 / RFU, CACNA2D3 / Fold change vs veh, CACNA2D3 / RFU, DTX4 / Fold change vs veh, DTX4 / RFU, TFCP2 / Fold change vs veh, TFCP2 / RFU, GMCL1 /// GMCL1P1 / Fold change vs veh, GMCL1 /// GMCL1P1 / RFU, AEBP2 / Fold change vs veh, AEBP2 / RFU, SNHG1 /// SNORD22 /// SNORD25 /// SNORD26 /// SNORD27 /// SNORD28 /// SNORD29 /// SNORD31 / Fold change vs veh, SNHG1 /// SNORD22 /// SNORD25 /// SNORD26 /// SNORD27 /// SNORD28 /// SNORD29 /// SNORD31 / Fold change (Aza/veh), C12orf56 (ProbeSet 11735607_a_at) / Fold change (ACY-1035/veh), C12orf56 (ProbeSet 11735607_a_at) / Fold change (Aza/veh), FGFR1OP (ProbeSet 11751329_s_at) / Fold change (ACY-1035/veh), FGFR1OP (ProbeSet 11751329_s_at) / Fold change (Aza/veh), VPS36 (ProbeSet 11739960_a_at) / Fold change (ACY-1035/veh), VPS36 (ProbeSet 11739960_a_at) / RFU SYPL1 (11715823_x_at) / Fold change /veh SYPL1 (11715823_x_at) / RFU IGFBP7 (11715501_s_at) / Fold change /veh IGFBP7 (11715501_s_at) / RFU REEP3 (11722064_at) / Fold change /veh REEP3 (11722064_at) / RFU IGLL1 (11728026_x_at) / Fold change /veh IGLL1 (11728026_x_at): dose or concentration left out as unconfirmed
Conditions: ProbeSet 11725901_x_at; LIST B

## Nc1ncn([C@@H]2O[C@H](CO)[C@@H](O)[C@H]2O)c(=O)n1 [azacitidine]
  RFU, RWDD3: 20.92 RFU
